Activity calls are given as the source filed them. The rule behind the calls is not given here.
Assays:
P388 [1] = test: Increase in mean survival of P388 (murine leukemia) inoculated mice; no effect.; type: functional; settings: Mus musculus
P388 [2] = test: In vitro inhibition of Pt resistant P388 (murine leukemia) cell growth.; type: functional, cell-based, Mus musculus
P388 [3] = test: In vitro inhibition of P388 (murine leukemia) cell growth.; type: functional, cell-based, Mus musculus
P388 [4] = test: Optimal i.p. dose in P388 (murine leukemia) inoculated mice.; type: functional, Mus musculus
P388 [5] = test: Increase in mean survival of P388 (murine leukemia) inoculated mice following optimal dose.; type: functional, organism-based; settings: Mus musculus

Molecule: NCCNCCc1ccc(Nc2c3ccccc3nc3ccccc23)cc1
- ILS (P388 [1]): inactive
- IC50 (P388 [2]; Mus musculus, P388): 45 µM
- IC50 (P388 [3]; Mus musculus, P388): 12.5 µM
- OD (P388 [4]): 45 mg/kg

Molecule: Dichloro(1,3-propanediamine)platinum (II) [listing 1 of 2 here]
- IC50 (P388 [2]; p388): 0.38 µM
- IC50 (P388 [3]; p388): 0.12 µM

Molecule: COc1cccc2c(Nc3ccc(CCCC(CN)CN)cc3)c3cccc(C(=O)NCCN(C)C)c3nc12
- ILS (P388 [1]): inactive
- OD (P388 [4]): 30 mg/kg

Molecule: DICHLORO(ETHYLENEDIAMINE) PLATINUM (II) [listing 1 of 2 here]
- ILS (P388 [5]): 70%
- OD (P388 [4]; Mus musculus): 13.3 mg/kg

Molecule: CISPLATIN [listing 1 of 2 here]
- IC50 (P388 [2]; p388): 5.5 µM
- IC50 (P388 [3]; p388): 1.2 µM

Molecule: 9-[4-(5-Amino-4-aminomethyl-pentyl)-phenylamino]-5-methoxy-acridine-4-carboxylic acid (2-dimethylamino-ethyl)-amide (2HCl) [listing 1 of 2 here]
- IC50 (P388 [2]; p388): 1 µM
- IC50 (P388 [3]; p388): 1.6 µM

Molecule: Dichloro(1,3-propanediamine)platinum (II) [listing 2 of 2 here]
- ILS (P388 [5]): 31%
- OD (P388 [4]; Mus musculus): 8.9 mg/kg

Molecule: 2-{3-[4-(Acridin-9-ylamino)-phenyl]-propyl}-propane-1,3-diammino-dichloroplatinum (II) (HCl) [listing 1 of 2 here]
- IC50 (P388 [2]; p388): 1.9 µM
- IC50 (P388 [3]; p388): 2.9 µM

Molecule: 2-{3-[4-(Acridin-9-ylamino)-phenyl]-propyl}-propane-1,3-diammino-dichloroplatinum (II) (HCl) [listing 2 of 2 here]
- ILS (P388 [1]): inactive
- OD (P388 [4]; Mus musculus): 20 mg/kg

Molecule: 9-[4-(5-Amino-4-aminomethyl-pentyl)-phenylamino]-5-methoxy-acridine-4-carboxylic acid (2-dimethylamino-ethyl)-amide (2HCl) [listing 2 of 2 here]
- ILS (P388 [5]): 28%
- OD (P388 [4]; Mus musculus): 45 mg/kg

Molecule: N,1-{2-[4-(Acridin-9-ylamino)-phenyl]-ethyl}-ethane-1,2-diammino-dichloroplatinum (II) [listing 1 of 2 here]
- ILS (P388 [1]): inactive
- OD (P388 [4]; Mus musculus): 13.3 mg/kg

Molecule: NCC(CN)Cc1ccc(Nc2c3ccccc3nc3ccccc23)cc1
- ILS (P388 [1]): inactive
- IC50 (P388 [2]; Mus musculus, P388): 0.7 µM
- IC50 (P388 [3]; Mus musculus, P388): 7.2 µM
- OD (P388 [4]): 45 mg/kg

Molecule: NCC(CN)CCCCc1ccc(Nc2c3ccccc3nc3ccccc23)cc1
- ILS (P388 [1]): inactive
- IC50 (P388 [2]; Mus musculus, P388): 0.68 µM
- IC50 (P388 [3]; Mus musculus, P388): 0.72 µM
- OD (P388 [4]): 20 mg/kg

Molecule: NCCNCCCc1ccc(Nc2c3ccccc3nc3ccccc23)cc1
- ILS (P388 [1]): inactive
- IC50 (P388 [2]; Mus musculus, P388): 0.7 µM
- IC50 (P388 [3]; Mus musculus, P388): 3.7 µM
- OD (P388 [4]): 20 mg/kg

Molecule: NCC(CN)CCCCCc1ccc(Nc2c3ccccc3nc3ccccc23)cc1
- ILS (P388 [1]): inactive
- IC50 (P388 [2]; Mus musculus, P388): 0.69 µM
- IC50 (P388 [3]; Mus musculus, P388): 0.72 µM
- OD (P388 [4]): 13.3 mg/kg

Molecule: 2-{4-[4-(Acridin-9-ylamino)-phenyl]-butyl}-propane-1,3-diammino-dichloroplatinum (II) (HCl) [listing 1 of 2 here]
- IC50 (P388 [2]; p388): 0.9 µM
- IC50 (P388 [3]; p388): 7.2 µM

Molecule: NCCNCCCCc1ccc(Nc2c3ccccc3nc3ccccc23)cc1
- ILS (P388 [1]): inactive
- IC50 (P388 [2]; Mus musculus, P388): 1.3 µM
- IC50 (P388 [3]; Mus musculus, P388): 7.8 µM
- OD (P388 [4]): 65 mg/kg

Molecule: NCCNCCCCCc1ccc(Nc2c3ccccc3nc3ccccc23)cc1
- ILS (P388 [1]): inactive
- IC50 (P388 [2]; Mus musculus, P388): 3 µM
- IC50 (P388 [3]; Mus musculus, P388): 7.3 µM
- OD (P388 [4]): 20 mg/kg

Molecule: CISPLATIN [listing 2 of 2 here]
- ILS (P388 [5]): 120%
- OD (P388 [4]; Mus musculus): 5.3 mg/kg

Molecule: 2-{4-[4-(Acridin-9-ylamino)-phenyl]-butyl}-propane-1,3-diammino-dichloroplatinum (II) (HCl) [listing 2 of 2 here]
- ILS (P388 [1]): inactive
- OD (P388 [4]; Mus musculus): 30 mg/kg

Molecule: NCC(CN)CCc1ccc(Nc2c3ccccc3nc3ccccc23)cc1
- ILS (P388 [1]): inactive
- IC50 (P388 [2]; Mus musculus, P388): 0.63 µM
- IC50 (P388 [3]; Mus musculus, P388): 0.31 µM
- OD (P388 [4]): 30 mg/kg

Molecule: DICHLORO(ETHYLENEDIAMINE) PLATINUM (II) [listing 2 of 2 here]
- IC50 (P388 [2]; p388): 1.03 µM
- IC50 (P388 [3]; p388): 0.3 µM

Molecule: NCC(CN)CCCc1ccc(Nc2c3ccccc3nc3ccccc23)cc1
- ILS (P388 [1]): inactive
- IC50 (P388 [2]; Mus musculus, P388): 0.12 µM
- IC50 (P388 [3]; Mus musculus, P388): 0.12 µM
- OD (P388 [4]): 30 mg/kg

Molecule: N,1-{2-[4-(Acridin-9-ylamino)-phenyl]-ethyl}-ethane-1,2-diammino-dichloroplatinum (II) [listing 2 of 2 here]
- IC50 (P388 [2]; p388): 2.4 µM
- IC50 (P388 [3]; p388): 2.9 µM
